Key:
Assay in all cases: Post-emergence herbicidal action, greenhouse pot trial
Format in all cases: in vivo
[1] = test system: Viola tricolor (VIOTR)
Description: (§1) Seeds of monocotyledonous and dicotyledonous weeds and crop plants are placed in sandy loam in plastic or organic planting pots, covered with soil and cultivated in a greenhouse under controlled growth conditions. 2 to 3 weeks after sowing, the trial plants are treated at the one-leaf stage. The compounds of the invention, formulated in the form of wettable powders (WP) or as emulsion concentrates (EC), are then sprayed onto the green parts of the plants as aqueous suspension or emulsion with addition of 0.5% additive at a water application rate equivalent to 600 l/ha. After about 3 weeks of keeping the trial plants in the greenhouse under optimum growth conditions, the effect of the preparations is rated visually in comparison to untreated controls. For example, 100% activity=the plants have died, 0% activity=like control plants.
(§2) Tables B1 to B14 below show the effects of selected compounds of the general formula (I) according to Table 1 on various harmful plants and at an application rate corresponding to 320 g/ha or lower, which were obtained by the trial procedure specified above. The appendices “a”, “b” and “c” give differentiation by dosage used with otherwise the same harmful plants tested.
(§3) As shown by results from Tables B1 to B19, inventive compounds of the general formula (I) in the case of post-emergence treatment have good herbicidal efficacy against harmful plants, for example Abutilon theophrasti (ABUTH), Alopecurus myosuroides (ALOMY), Amaranthus retroflexus (AMARE), Avena fatua (AVEFA), Digitaria sanguinalis (DIGSA), Echinochloa crus-galli (ECHCG), Bassia scoparia (KCHSC), Lolium rigidum (LOLRI), Matricaria inodora (MATIN), Pharbitis purpurea (PHBPU), Polygonum convolvulus (POLCO), Setaria viridis (SETVI), Veronica persica (VERPE) and Viola tricolor (VIOTR) at an application rate of 320 g of active substance or less per hectare, and good crop plant compatibility in the case of organisms such as Oryza sativa (ORYSA), Zea mays (ZEAMX), Brassica napus (BRSNW), Glycine max (GLXMA) and Triticum aestivum (TRZAS) at an application rate of 320 g or less per hectare.

[2] = test system: Digitaria sanguinalis (DIGSA); details: visual rating after about 3 weeks; for pest or weed control at 320 g/ha: Digitaria sanguinalis, 504 h, read-out: Post-emergence effect at 320 g/ha against DIGSA in %
Description: as §1, §2, §3

[3] = test system: Amaranthus retroflexus (AMARE); details: visual rating after about 3 weeks; for pest or weed control at 320 g/ha / pest or weed control at 80 g/ha: Amaranthus retroflexus, 504 h; for pest or weed control at 320 g/ha: read-out: Post-emergence effect at 320 g/ha against AMARE in %; for pest or weed control at 80 g/ha: read-out: Post-emergence effect at 80 g/ha against AMARE in %
Description: as §1, §2, §3

[4] = test system: Avena fatua (AVEFA); details: Avena fatua, 504 h, 320 g/ha, visual rating after about 3 weeks, read-out: Post-emergence effect at 320 g/ha against AVEFA in %
Description: as §1, §2, §3

[5] = test system: Polygonum convolvulus (POLCO); details: visual rating after about 3 weeks; for pest or weed control at 320 g/ha: read-out: Post-emergence effect at 320 g/ha against POLCO in %
Description: as §1, §2, §3

[6] = test system: Bassia scoparia (KCHSC); details: Bassia scoparia, 504 h, read-out: Post-emergence effect against KCHSC
Description: as §1, §2, §3

[7] = test system: Pharbitis purpurea (PHBPU); details: visual rating after about 3 weeks; for pest or weed control at 80 g/ha / pest or weed control at 320 g/ha: Ipomoea purpurea, 504 h; for pest or weed control at 80 g/ha: read-out: Post-emergence effect at 80 g/ha against PHBPU in %; for pest or weed control at 320 g/ha: read-out: Post-emergence effect at 320 g/ha against PHBPU in %
Description: as §1, §2, §3

[8] = test system: Echinochloa crus-galli (ECHCG); details: visual rating after about 3 weeks; for pest or weed control at 320 g/ha: read-out: Post-emergence effect at 320 g/ha against ECHCG in %
Description: as §1, §2, §3

[9] = test system: Setaria viridis (SETVI); details: 320 g/ha, visual rating after about 3 weeks; for pest or weed control at 320 g/ha: Setaria viridis, 504 h, read-out: Post-emergence effect at 320 g/ha against SETVI in %
Description: as §1, §2, §3

[10] = test system: Matricaria inodora (MATIN); details: visual rating after about 3 weeks; for pest or weed control at 320 g/ha / pest or weed control at 80 g/ha: Tripleurospermum inodorum, 504 h; for pest or weed control at 320 g/ha: read-out: Post-emergence effect at 320 g/ha against MATIN in %; for pest or weed control at 80 g/ha: read-out: Post-emergence effect at 80 g/ha against MATIN in %
Description: as §1, §2, §3

[11] = test system: Abutilon theophrasti (ABUTH); details: visual rating after about 3 weeks; for pest or weed control at 320 g/ha: read-out: Post-emergence effect at 320 g/ha against ABUTH in %
Description: as §1, §2, §3

[12] = Viola tricolor, 504 h, 320 g/ha, read-out: Post-emergence effect against VIOTR
[13] = Fallopia convolvulus, 504 h, 320 g/ha
[14] = Echinochloa crus-galli, 504 h, 320 g/ha
[15] = Abutilon theophrasti, 504 h, 320 g/ha
[16] = Viola tricolor, 504 h, 80 g/ha, read-out: Post-emergence effect against VIOTR

SMILES | pest or weed control at 320 g/ha [1, 12] | pest or weed control at 320 g/ha ([2]; 320 g/ha) | pest or weed control at 320 g/ha ([3]; 320 g/ha) | pest or weed control at 320 g/ha [5, 13] | pest or weed control at 320 g/ha ([7]; 320 g/ha) | pest or weed control at 320 g/ha [8, 14] | pest or weed control at 320 g/ha [9] | pest or weed control at 320 g/ha ([10]; 320 g/ha) | pest or weed control at 320 g/ha [11, 15] | pest or weed control at 80 g/ha [1, 16] | other results
CSC(Oc1nn(-c2ncccc2F)c(-c2ccc(F)nc2)c1Br)C(=O)O (single isomer, unassigned) [Example I-24] | 90% | 90% | 80% | 90% | 90% | 90% | 90% | 80% | 80% |  | pest or weed control at 320 g/ha [4]: 80%; pest or weed control at 80 g/ha [6]: 80%; pest or weed control at 320 g/ha [6]: 80%; pest or weed control at 80 g/ha [7]: 90%
CCOC(=O)C(Oc1nn(-c2ncccc2F)c(-c2ccc(F)nc2)c1Br)SC (single isomer, unassigned) [Example I-29] |  |  |  |  |  |  |  |  |  |  | Post-emergence effect against VIOTR ([1]; 80 g/ha): 80%; Post-emergence effect against VIOTR ([1]; 320 g/ha): 90%; Post-emergence effect at 320 g/ha against DIGSA in % ([2]; 320 g/ha): 90%; Post-emergence effect at 320 g/ha against AMARE in % ([3]; 320 g/ha): 80%; Post-emergence effect at 80 g/ha against POLCO in % ([5]; 80 g/ha): 90%; Post-emergence effect at 320 g/ha against POLCO in % ([5]; 320 g/ha): 90%; pest or weed control at 80 g/ha [6]: 80%; pest or weed control at 320 g/ha [6]: 90%; Post-emergence effect at 320 g/ha against PHBPU in % ([7]; 320 g/ha): 90%; Post-emergence effect at 320 g/ha against ECHCG in % ([8]; 320 g/ha): 90%; Post-emergence effect at 320 g/ha against SETVI in % [9]: 90%; Post-emergence effect at 320 g/ha against MATIN in % ([10]; 320 g/ha): 80%; Post-emergence effect at 320 g/ha against ABUTH in % ([11]; 320 g/ha): 90%
CCOC(=O)C(Oc1nn(-c2cc(F)ccc2F)c(-c2cncc(F)c2)c1I)SC (stereo not drawn) [Example I-02] | 90% |  |  |  |  | 90% | 80% | 90% |  | 80% | pest or weed control at 80 g/ha [10]: 80%
COC(=O)C(Oc1nn(-c2cc(F)ccc2F)c(-c2cncc(F)c2)c1Br)SC (stereo not drawn) [Example I-07] | 90% | 90% |  |  |  | 90% | 90% | 90% |  | 90% | pest or weed control at 20 g/ha ([1]; Viola tricolor, 504 h, 20 g/ha, read-out: Post-emergence effect against VIOTR): 80%; pest or weed control at 80 g/ha [10]: 80%
CCOC(=O)C(Oc1nn(-c2ncccc2F)c(-c2ccc(F)nc2)c1C(F)(F)F)SC (stereo not drawn) [Example I-09] | 90% |  |  | 90% | 90% | 80% |  | 80% | 80% |  | 
CCOC(=O)C(Oc1nn(-c2ncccc2F)c(-c2ccc(F)cc2F)c1Br)SC (stereo not drawn) [Example I-14] |  | 80% | 80% | 90% | 80% |  | 80% |  | 80% |  | 
CCOC(=O)C(Oc1nn(-c2cnccn2)c(-c2ccc(F)nc2)c1Br)SC (stereo not drawn) [Example I-17] |  | 80% | 80% |  | 80% | 80% | 80% |  |  |  | pest or weed control at 320 g/ha [4]: 80%; pest or weed control at 80 g/ha [7]: 80%
CCOC(=O)C(Oc1nn(-c2ncccc2F)c(-c2ccc(F)nc2)c1I)SC (stereo not drawn) [Example I-18] | 90% | 80% | 90% | 90% | 90% | 100% | 90% |  | 90% | 90% | pest or weed control at 80 g/ha [3]: 80%; pest or weed control at 80 g/ha ([5]; Fallopia convolvulus, 504 h, 80 g/ha, read-out: Post-emergence effect at 80 g/ha against POLCO in %): 90%; pest or weed control at 80 g/ha [7]: 80%
CCOC(=O)C(Oc1nn(-c2ncccc2F)c(-c2ccc(F)nc2)c1C1CC1)SC (stereo not drawn) [Example I-20] | 90% |  | 80% |  |  | 90% |  |  | 90% | 80% | pest or weed control at 80 g/ha [3]: 80%; pest or weed control at 80 g/ha ([11]; Abutilon theophrasti, 504 h, 80 g/ha, read-out: Post-emergence effect at 80 g/ha against ABUTH in %): 80%
CSC(Oc1nn(-c2ccccc2F)c(-c2ccc(F)nc2)c1I)C(=O)O (stereo not drawn) [Example I-21] | 90% |  | 90% | 80% |  | 90% | 90% |  | 80% | 80% | 
CSC(Oc1nn(-c2ncccc2F)c(-c2ccc(F)nc2)c1C1CC1)C(=O)O (stereo not drawn) [Example I-33] | 80% |  |  |  |  | 80% |  |  |  |  | pest or weed control at 320 g/ha [4]: 80%
CSC(Oc1nn(-c2ncccc2F)c(-c2ccc(F)nc2)c1Br)C(=O)O (stereo not drawn) [Example I-34] | 90% | 90% | 80% | 90% | 90% | 90% | 90% | 80% | 90% |  | Post-emergence effect at 80 g/ha against DIGSA in % ([2]; 80 g/ha): 80%; pest or weed control at 320 g/ha [6]: 80%; pest or weed control at 80 g/ha [7]: 80%; pest or weed control at 80 g/ha ([8]; Echinochloa crus-galli, 504 h, 80 g/ha, read-out: Post-emergence effect at 80 g/ha against ECHCG in %): 80%
CSC(Oc1nn(-c2ncccc2F)c(-c2ccc(F)nc2)c1C(F)(F)F)C(=O)O (stereo not drawn) [Example I-38] | 90% |  |  | 90% |  |  |  | 80% | 80% |  | 
CCOC(=O)C(Oc1nn(-c2ccccc2F)c(-c2ccc(F)nc2)c1I)SC (stereo not drawn) [Example I-68] | 90% | 80% | 90% | 80% |  | 90% | 90% |  |  |  | 

— patent US20250026724A1, “(1,4,5-TRISUBSTITUTED 1H-PYRAZOL-3-YL)OXY-2-ALKYLTHIOALKYL ACIDS AND -ALKYL ACID DERIVATIVES, SALTS THEREOF AND USE THEREOF AS ACTIVE HERBICIDAL INGREDIENTS” (BAYER AKTIENGESELLSCHAFT, priority 2021, published 2025)
